How the values were obtained:
[1] = target: GST-tagged human ROCK1 catalytic domain 1-477 (Homo sapiens (Human), UniProt Q13464); test: Inhibition of Rho-associated protein kinase isoform 1 (LANCE Ultra ULight-CREBtide FRET kinase assay); type: biochemical; conditions: 30 μM was the highest concentration analyzed
Experimental: (§1) Exemplary compounds were tested for ability to inhibit Rho-associated protein kinase isoform 1 (ROCK1) and Rho-associated protein kinase isoform 2 (ROCK2). Assay procedures and results are described below.
(§2) Protein constructs were purified from a baculovirus expression system. The peptide substrate was fluorescent LANCE® Ultra ULight-CREBtide: […] (PerkinElmer, # TRF0107-D). […] After a 90 minute incubation at room temperature on a shaker table, the kinase reaction was stopped by addition of 10 mM EDTA, and phosphorylation of the substrate was detected by adding 1 nM LANCE® Ultra Europium-anti-phospho-CREB (ser133) antibody (PerkinElmer, # TRF0200-D) and incubating for 60 minutes on a shaker at room temperature. The flurorescence resonance energy transfer (FRET) signals were read and analyzed on an Envision™ 2103 Multilabel Reader (Perkin Elmer).

[2] = target: GST-tagged human ROCK2 catalytic domain 1-553 (Homo sapiens (Human), UniProt O75116); test: Inhibition of Rho-associated protein kinase isoform 2 (LANCE Ultra ULight-CREBtide FRET kinase assay); type: biochemical; conditions: for IC50: 30 μM was the highest concentration analyzed; for Selectivity for ROCK2 over ROCK1 (IC50 ROCK1 / IC50 ROCK2): selectivity ROCK2 vs ROCK1
Experimental: as §1, §2

GST-tagged human ROCK2 catalytic domain 1-553, sequence (O75116 1-553): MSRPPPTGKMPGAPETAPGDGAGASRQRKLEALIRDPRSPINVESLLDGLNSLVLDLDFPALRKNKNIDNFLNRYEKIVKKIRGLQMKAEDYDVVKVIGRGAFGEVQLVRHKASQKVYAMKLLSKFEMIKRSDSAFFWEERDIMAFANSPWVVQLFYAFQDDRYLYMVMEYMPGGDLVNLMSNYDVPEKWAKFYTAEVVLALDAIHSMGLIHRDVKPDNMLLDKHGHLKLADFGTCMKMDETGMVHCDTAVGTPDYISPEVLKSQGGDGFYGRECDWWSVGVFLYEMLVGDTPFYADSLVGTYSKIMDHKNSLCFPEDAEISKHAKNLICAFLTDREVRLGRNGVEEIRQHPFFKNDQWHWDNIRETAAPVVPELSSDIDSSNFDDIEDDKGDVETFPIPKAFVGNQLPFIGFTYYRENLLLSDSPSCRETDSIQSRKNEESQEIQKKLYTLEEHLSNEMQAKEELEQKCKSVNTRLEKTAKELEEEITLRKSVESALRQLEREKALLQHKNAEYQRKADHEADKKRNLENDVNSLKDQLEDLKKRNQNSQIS
GST-tagged human ROCK1 catalytic domain 1-477, sequence (Q13464 1-477): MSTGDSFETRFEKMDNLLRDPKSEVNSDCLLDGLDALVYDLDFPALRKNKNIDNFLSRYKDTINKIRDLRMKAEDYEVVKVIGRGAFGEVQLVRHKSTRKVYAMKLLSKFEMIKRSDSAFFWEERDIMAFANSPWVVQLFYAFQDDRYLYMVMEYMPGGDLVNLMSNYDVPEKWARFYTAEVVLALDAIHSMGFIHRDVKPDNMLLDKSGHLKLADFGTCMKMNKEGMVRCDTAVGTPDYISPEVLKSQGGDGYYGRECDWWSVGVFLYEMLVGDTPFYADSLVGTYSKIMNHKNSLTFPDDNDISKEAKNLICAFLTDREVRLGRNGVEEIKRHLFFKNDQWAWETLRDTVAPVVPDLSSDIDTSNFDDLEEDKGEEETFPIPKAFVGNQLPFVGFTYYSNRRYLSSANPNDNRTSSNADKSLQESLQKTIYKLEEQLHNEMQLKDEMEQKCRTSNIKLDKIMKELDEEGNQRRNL

Compound | IC50 [1] | IC50 [2] | Selectivity for ROCK2 over ROCK1 (IC50 ROCK1 / IC50 ROCK2) [2]
O=C(Cc1ccc(F)cc1)Nc1cccc(-c2nnc(Nc3ccc4[nH]ncc4c3Cl)s2)c1 [Example 35BO] | < 1 µM | < 1 µM | >50
O=C(Cc1cnccn1)Nc1cccc(-c2nnc(Nc3ccc4[nH]ncc4c3Cl)s2)c1 [Example 35BP] | < 1 µM | < 1 µM | >5
COc1ccc(CC(=O)Nc2cccc(-c3nnc(Nc4ccc5[nH]ncc5c4Cl)s3)c2)cc1 [Example 35BQ] | < 1 µM | < 1 µM | >5
O=C(Nc1cccc(-c2nnc(Nc3ccc4[nH]ncc4c3Cl)s2)c1)c1cnccn1 [Example 35BR] | > 30 µM | < 1 µM | >100
COc1ccc(C(=O)Nc2cccc(-c3nnc(Nc4ccc5[nH]ncc5c4Cl)s3)c2)cc1 [Example 35BS] | < 1 µM | < 1 µM | <5
COc1cccc(C(=O)Nc2cccc(-c3nnc(Nc4ccc5[nH]ncc5c4Cl)s3)c2)c1 [Example 35BT] | < 1 µM | < 1 µM | >5
Cn1cc(C(=O)Nc2cncc(-c3nnc(Nc4ccc5[nH]ncc5c4Cl)s3)c2)cn1 [Example 35BU] | < 1 µM | < 1 µM | >5
NCCn1cc(C(=O)Nc2cc(-c3nnc(Nc4ccc5[nH]ncc5c4)s3)ccn2)cn1.O=C(O)C(F)(F)F [Example 35BV] | < 1 µM | < 1 µM | >50
Cn1cc(C(=O)Nc2cccc(-c3nnc(Nc4ccc5[nH]nc(F)c5c4)s3)c2)cn1 [Example 35BW] | > 30 µM | > 30 µM | –
Cn1cc(C(=O)Nc2cc(-c3nnc(Nc4ccc5[nH]ncc5c4)s3)ccn2)cn1.O=C(O)C(F)(F)F [Example 35BY] | > 30 µM | – | >100
Cn1cc(C(=O)Nc2cc(F)c(F)c(-c3nnc(Nc4ccc5[nH]ncc5c4)s3)c2)cn1 [Example 35BZ] | > 30 µM | < 1 µM | >100
O=C(Nc1cc(-c2nnc(Nc3ccc4[nH]ncc4c3Cl)s2)ccn1)c1ccc(F)cc1.O=C(O)C(F)(F)F [Example 35B] | < 1 µM | < 1 µM | <5
Cn1cc(C(=O)Nc2cncc(-c3nnc(Nc4ccc5[nH]ncc5c4)s3)c2)cn1.O=C(O)C(F)(F)F [Example 35CA] | < 1 µM | < 1 µM | <5
CC(=O)Nc1cc(F)c(F)c(-c2nnc(Nc3ccc4[nH]ncc4c3)s2)c1 [Example 35CB] | > 30 µM | < 1 µM | >100
O=C(O)C(F)(F)F.O=C(O)CS(=O)(=O)Nc1cccc(-c2nnc(Nc3ccc4[nH]ncc4c3)s2)c1 [Example 35CD] | 1 to 15 µM | 1 to 15 µM | <5
NCCn1cc(C(=O)Nc2cccc(-c3nnc(Nc4ccc5[nH]ncc5c4)s3)c2)cn1 [Example 35CE] | < 1 µM | < 1 µM | >5
NCc1cncc(C(=O)Nc2cccc(-c3nnc(Nc4ccc5[nH]ncc5c4)s3)c2)c1.O=C(O)C(F)(F)F [Example 35CF] | 1 to 15 µM | < 1 µM | >5
O=C(Nc1cccc(-c2nnc(Nc3ccc4[nH]ncc4c3)s2)c1)c1cnn(CC(O)CO)c1 (centres unmarked) [Example 35CG] | < 1 µM | < 1 µM | >5
O=C(Nc1cccc(-c2nnc(Nc3ccc4[nH]ncc4c3)s2)c1)C(O)CO (centres unmarked) [Example 35CI] | < 1 µM | < 1 µM | <5
O=C(O)c1cccc(-c2nnc(Nc3ccc4[nH]ncc4c3)s2)c1 [Example 35CL] | 15 to 30 µM | 1 to 15 µM | –

Compound | IC50 [1] | IC50 [2] | Selectivity for ROCK2 over ROCK1 (IC50 ROCK1 / IC50 ROCK2) [2]
CCS(=O)(=O)Nc1cncc(-c2nnc(Nc3ccc4[nH]ncc4c3)s2)c1.O=C(O)C(F)(F)F [Example 35CN] | 1 to 15 µM | 1 to 15 µM | >5
O=C(O)COc1cccc(-c2nnc(Nc3ccc4[nH]ncc4c3)s2)c1 [Example 35CO] | 1 to 15 µM | 1 to 15 µM | –
CC(C)NC(=O)COc1cccc(-c2nnc(Nc3ccc4[nH]ncc4c3)s2)c1 [Example 35CP] | 15 to 30 µM | < 1 µM | >5
Nc1cc(-c2nnc(Nc3ccc4[nH]ncc4c3)s2)ccn1.O=C(O)C(F)(F)F [Example 35CQ] | > 30 µM | < 1 µM | >100
Nc1cccc(-c2nnc(Nc3ccc4[nH]ncc4c3)s2)n1.O=C(O)C(F)(F)F [Example 35CR] | > 30 µM | < 1 µM | >5
Nc1cncc(-c2nnc(Nc3ccc4[nH]ncc4c3)s2)c1.O=C(O)C(F)(F)F [Example 35CS] | < 1 µM | 1 to 15 µM | <5
Nc1ccnc(-c2nnc(Nc3ccc4[nH]ncc4c3)s2)c1.O=C(O)C(F)(F)F [Example 35CT] | > 30 µM | < 1 µM | >5
Nc1cccc(-c2nsc(Nc3ccc4[nH]ncc4c3)n2)c1 [Example 35CU] | > 30 µM | 1 to 15 µM | >5
CC(=O)c1cc(-c2nnc(Nc3ccc4[nH]ncc4c3Cl)s2)ccn1 [Example 35CV] | 1 to 15 µM | < 1 µM | >50
CC(C(=O)Nc1cccc(-c2nnc(Nc3ccc4[nH]ncc4c3Cl)s2)c1)c1ccc(F)cc1 (centres unmarked) [Example 35E] | 1 to 15 µM | < 1 µM | >50
CCCOC(=O)Nc1cc(-c2nnc(Nc3ccc4[nH]ncc4c3Cl)s2)ccn1.O=C(O)C(F)(F)F [Example 35F] | > 30 µM | < 1 µM | >100
O=C(Cc1ccc(F)cc1)Nc1cc(-c2nnc(Nc3ccc4[nH]ncc4c3Cl)s2)ccn1 [Example 35G] | < 1 µM | < 1 µM | >5
CC1CCCCC1C(=O)Nc1cccc(-c2nnc(Nc3ccc4[nH]ncc4c3Cl)s2)c1 (centres unmarked) [Example 35H] | 1 to 15 µM | < 1 µM | >5
CC(=O)Nc1cccc(-c2nnc(Nc3ccc4[nH]ncc4c3C(C)C)s2)c1 [Example 35I] | > 30 µM | 1 to 15 µM | >5
CC(=O)Nc1cccc(-c2nnc(Nc3ccc4[nH]ncc4c3C)s2)c1 [Example 35J] | 1 to 15 µM | < 1 µM | >5
C=Cc1c(Nc2nnc(-c3cccc(NC(C)=O)c3)s2)ccc2[nH]ncc12.O=C(O)C(F)(F)F [Example 35K] | 1 to 15 µM | < 1 µM | >5
CC(C)(C)CC(=O)Nc1cccc(-c2nnc(Nc3ccc4[nH]ncc4c3Cl)s2)c1 [Example 35M] | 1 to 15 µM | < 1 µM | >5
CC(C)(C)C(=O)Nc1cccc(-c2nnc(Nc3ccc4[nH]ncc4c3Cl)s2)c1 [Example 35O] | < 1 µM | < 1 µM | >5
O=C(Nc1cccc(-c2nnc(Nc3ccc4[nH]ncc4c3Cl)s2)c1)N1CCNCC1 [Example 35T] | < 1 µM | < 1 µM | >5
CC(C)C(=O)Nc1cccc(-c2nnc(Nc3ccc4[nH]ncc4c3Cl)s2)c1 [Example 35V] | < 1 µM | < 1 µM | >5
